Experimental data taken from paper PMC10534486 (Pharmaceutics, 2023).
Like-named read-outs stand apart in the source and are kept apart here.

What was measured:
[1] = Vmax, Km and CLint for disappearance of tofacitinib in hepatic microsomes
P-gp = tested on: P-gp; set-up: method as in PMID 24704892; settings: cited from earlier work
[2] = cited from earlier work
[3] = Pharmacokinetics after oral administration of 20 mg/kg to CON and PHL rats; assay type: in vivo, Sprague–Dawley rats; settings: for AUC(0-inf) / Cmax / CL renal / half-life / k el / bioavailability: po, 20 mg/kg; for CL renal: read-out: CLR (time-averaged renal clearance); for half-life: read-out: Terminal half-life; for k el: read-out: k (elimination rate constant) (converted); for bioavailability: read-out: F (absolute oral bioavailability)
Method: The rats were randomly assigned to one of two experimental groups: a control (CON) and a P-407-induced hyperlipidemia (PHL) group. P-407 was dissolved in cold sterile 0.9% NaCl-injectable solution and stored in a refrigerator for at least 6 h to ensure complete dissolution. Rats in the PHL group received a single intraperitoneal injection of 1 g/kg P-407, whereas rats in the CON group received a single intraperitoneal injection of an equal volume of 0.9% NaCl. Hyperlipidemia was defined as a total cholesterol concentration higher than 220 mg/dL or a low-density lipoprotein (LDL) cholesterol concentration higher than 160 mg/dL [29, 30].
Rats were anesthetized with ketamine (100 mg/kg) prior to surgical procedures. […] Prior to oral investigation, the rats were fasted overnight and only the carotid artery was cannulated for blood collection. The rats were allowed to recover for 3–4 h after surgical procedures prior to the performance of subsequent experiments.
. Blood samples (0.12 mL) were obtained at 0 (prior to drug administration), 1, 5, 15, 30, 45, 60, 90, 120, 180, and 240 min through the carotid artery. […]. Blood samples (0.12 mL) were collected through the carotid artery at 0 (prior to drug administration), 5, 15, 30, 45, 60, 90, 120, 180, 240, 360, and 480 min. All blood samples were centrifuged for 1 min at 8000× g and plasma (50 μL) samples were collected. After the blood samples were obtained, 0.3 mL of heparinized 0.9% NaCl solution (20 IU/mL) was immediately injected into the carotid artery to prevent blood clotting.
At 24 h, the rats were sacrificed and the abdomen of each was opened. The entire gastrointestinal tract of each rat was excised, cut into small pieces, and immersed in a beaker containing 50 mL of methanol. After evenly mixing the contents in the beaker, a 50 μL aliquot of each supernatant was withdrawn. The volumes of urine samples collected for 24 h after drug administration were measured and two 100 μL aliquots of each were collected.
The following pharmacokinetic parameters were determined by non-compartmental analysis (WinNonlin, Pharsight Co., Mountain View, CA, USA) using standard methods: terminal half-life, time-averaged total body (CL), renal (CLR), and nonrenal (CLNR) clearances, apparent volume of distribution at steady state (Vss), area under the plasma concentration–time curve from zero to infinity (AUC0–∞), and elimination rate constant (k). AUC0–∞ was calculated using the trapezoidal rule extrapolation method, whereas the maximum plasma concentration (Cmax) and time required to reach Cmax (Tmax) were determined directly from the plasma concentration–time curves. (R3-3) The absorption rate constants (ka) for oral administration were also estimated under the assumption of one-compartment model and first-order elimination.

[4] = for CLR estimated from the free fraction in plasma: intravenous
[5] = Distribution of tofacitinib in tissues 30 min after intravenous administration; assay type: in vivo; settings: Sprague-Dawley, rat; all tissues of CON and PHL rats, 30 min after intravenous 10 mg/kg; read-out: Tissue-to-plasma (T/P) ratios
Method: . Tissue samples, including fat, brain, kidney, heart, liver, large intestine, mesentery, lung, small intestine, muscle, stomach, and spleen, were removed from each rat, rinsed in phosphate-buffered saline (PBS, pH 7.4), and blotted dry with paper towels to remove any remaining blood. Approximately 1 g of each tissue was added to 4 volumes of homogenizing buffer, followed by homogenization (IKA Labortechnik, Staufen, Germany) and centrifugation at 8000× g for 10 min.

[6] = Vmax, Km and CLint for disappearance of tofacitinib in intestinal microsomes
in vivo = settings: Sprague-Dawley, rat, plasma, iv, 10 mg/kg; for clearance: CL (time-averaged total body clearance); for CL renal: CLR (time-averaged renal clearance); for MRT: MRT (mean residence time); for half-life: Terminal half-life; for Vd: Vss (apparent volume of distribution at steady state); for k el: k (elimination rate constant)
in vitro = in vitro ADME, rat
Method: […]. […] […].
The binding percentage (%) was calculated using the equation: Binding percentage %=CT−CF/CT×100 where CF represents the concentration of free drug measured in the ultrafiltrate and CT is the total drug concentration introduced into the ultrafiltration system before centrifugation.

[7] = Sprague-Dawley, rat, plasma, CON rats (n = 6)
[8] = Sprague-Dawley, rat, plasma, PHL rats (n = 7)
[9] = oral 20 mg/kg, CON rats (n = 6)
[10] = oral 20 mg/kg, PHL rats (n = 7)

## C[C@@H]1CCN(C(=O)CC#N)C[C@@H]1N(C)c1ncnc2[nH]ccc12 [tofacitinib, Tofacitinib]
[1]
  CLint lower in PHL than in CON rats: 36.9%
  Km, PHL versus CON rats: did not differ significantly
P-gp
  P-gp substrate status: substrate of P-gp
[2]
  Terminal half-life: approximately 3.3 h
[3]; [7]
  AUC(0-inf): 4800 ng·h/mL
  Cmax: 2960 ± 643 ng/mL
  CL renal: 3.52 ± 1.8 mL/min/kg
  half-life: 62.1 ± 16.7 min
  k el: 0.000197 s⁻¹
[3]; Sprague-Dawley, rat, plasma, CON rats
  bioavailability: 53.7%
[3]; [8]
  AUC(0-inf): 7950 ng·h/mL
  Cmax: 4750 ± 1180 ng/mL
  CL renal: 1.28 ± 0.786 mL/min/kg
  half-life: 84.3 ± 21.2 min
  k el: 0.000145 s⁻¹
[3]; Sprague-Dawley, rat, plasma, PHL rats
  bioavailability: 51.4%
[3]; Sprague-Dawley, rat, plasma, oral 20 mg/kg, PHL rats (n = 7)
  Tmax: 30 min
[3]; oral 20 mg/kg
  AUC0–∞ higher in PHL than in CON rats: 65.6%
  CLR lower in PHL than in CON rats: 63.6%
  Cmax higher in PHL than in CON rats: 60.5%
[3]; [9]
  Ae0–24 h (drug excreted unchanged in urine for 24 h): 4.90 ± 1.95 % of dose
  ka (absorption rate constant): 0.127 ± 0.0389 min⁻¹
[3]; [10]
  Ae0–24 h (drug excreted unchanged in urine for 24 h): 3.02 ± 1.87 % of dose
  ka (absorption rate constant): 0.156 ± 0.0885 min⁻¹
[3]; oral 20 mg/kg, all CON and PHL rats
  Time after dosing at which drug was detected in plasma: 5 min
[4]; intravenous 10 mg/kg
  AUC0–∞ higher in PHL than in CON rats: 73.5%
  CL slower in PHL than in CON rats: 43.0%
[4]; intravenous 10 mg/kg, CON rats (n = 7)
  Ae0–24 h (drug excreted unchanged in urine for 24 h): 4.06 ± 1.89 % of dose
[4]; intravenous 10 mg/kg, PHL rats (n = 6)
  Ae0–24 h (drug excreted unchanged in urine for 24 h): 5.76 ± 2.53 % of dose
[4]; CON rats
  CLR estimated from the free fraction in plasma: 4.66 mL/min/kg
[4]; PHL rats
  CLR estimated from the free fraction in plasma: 6.05 mL/min/kg
[5]
  Kp at 30 min: < 1
[6]
  CLint lower in PHL than in CON rats: 51.3%
  Km, PHL versus CON rats: comparable
In vivo; AUC (AUC0–∞), CON rats (n = 7)
  AUC(0-inf): 4470 ng·h/mL
In vivo; CON rats (n = 7)
  clearance: 37.9 ± 4.85 mL/min/kg
  CL renal: 3.11 ± 1.58 mL/min/kg
  MRT: 22.6 min
  half-life: 29.6 ± 4.55 min
  Vd: 0.847 ± 0.191 L/kg
  k el: 0.000398 s⁻¹
In vivo; PHL rats (n = 6)
  clearance: 21.6 ± 1.13 mL/min/kg
  CL renal: 2.47 ± 1.1 mL/min/kg
  MRT: 22.7 min
  half-life: 34.5 ± 2.29 min
  Vd: 0.49 ± 0.136 L/kg
  k el: 0.000337 s⁻¹
In vitro; pH 7.4
  recovery at 30 min, 5 µg/mL: 100 ± 2.84%
In vitro; rat, plasma, 30 min, 5 µg/mL
  Free (unbound to plasma proteins) fraction in plasma: 40.8%
In vitro; rat, plasma, Free (unbound to plasma proteins) fraction in plasma
  fraction unbound at 30 min, 5 µg/mL: 0.667
In vitro; rat, plasma, Plasma protein binding
  fraction unbound at 30 min, 5 µg/mL: 0.408
